Experimental data reported in publication PMC11357054, “Azobenzenesulfonamide Carbonic Anhydrase Inhibitors as New Weapons to Fight Helicobacter pylori: Synthesis, Bioactivity Evaluation, In Vivo Toxicity, and Computational Studies” (Pharmaceuticals, 2024).
pKi: −log10 of the molar value. In brackets after ≈: the same amount, converted by molar mass. Read-outs that look alike come from different tables or passages of the source.

Legend:
[1] = target: T1, hCA I (Homo sapiens, UniProt P00915); experiment: stopped-flow CO2 hydration; type: biochemical; conditions: read-out: KI (nM) * / Human Isoforms / hCA I
T1 construct: gene CA1; purchased from Merck
Excerpt: stopped-flow CO2 hydration on hCA I

[2] = target: T2, hCA II (Homo sapiens, UniProt P00918); experiment: stopped-flow CO2 hydration; type: biochemical; conditions: read-out: KI (nM) * / Human Isoforms / hCA II
T2 construct: gene CA2; purchased from Merck
Excerpt: stopped-flow CO2 hydration on hCA II

[3] = target: T3, hCA XII (Homo sapiens, UniProt O43570); experiment: stopped-flow CO2 hydration; type: biochemical; conditions: read-out: KI (nM) * / Human Isoforms / hCA XII
T3 construct: gene CA12
Excerpt: stopped-flow CO2 hydration on hCA XII

[4] = target: T4, EcoβCA (Escherichia coli, UniProt P61517); experiment: stopped-flow CO2 hydration; type: biochemical; conditions: read-out: KI (nM) * / Bacterial Isoforms / Eco βCA
T4 construct: gene can; recombinant, obtained in-house

[5] = target: T5, PgiβCA; experiment: stopped-flow CO2 hydration; type: biochemical, Porphyromonas gingivalis; conditions: pH […] HEPES, […] Na2SO4, […] min preincubation, r.t.; read-out: KI (nM) * / Bacterial Isoforms / Pgi βCA
T5 construct: gene PgiCAb; recombinant, obtained in-house

[6] = target: T6, PgiγCA; experiment: stopped-flow CO2 hydration; type: biochemical, Porphyromonas gingivalis; conditions: pH […] HEPES, […] Na2SO4, […] min preincubation, r.t.; read-out: KI (nM) * / Bacterial Isoforms / Pgi γCA
T6 construct: gene PgiCA; recombinant, obtained in-house

[7] = target: T7, HpβCA (Helicobacter pylori, UniProt Q9ZN54); experiment: stopped-flow CO2 hydration; type: biochemical; conditions: read-out: KI (nM) * / Bacterial Isoforms / Hp βCA
T7 construct: gene cynT; recombinant, obtained in-house
T7 sequence (Q9ZN54 1-221): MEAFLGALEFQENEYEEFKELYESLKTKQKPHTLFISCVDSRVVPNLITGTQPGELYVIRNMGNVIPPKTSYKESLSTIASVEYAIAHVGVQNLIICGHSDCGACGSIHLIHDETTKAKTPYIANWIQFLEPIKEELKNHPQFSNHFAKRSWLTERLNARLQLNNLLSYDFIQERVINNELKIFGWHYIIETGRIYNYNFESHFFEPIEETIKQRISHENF

[8] = target: T8, HpαCA (Helicobacter pylori, UniProt B5Z8I0); experiment: stopped-flow CO2 hydration; type: biochemical
T8 construct: gene HPG27_1129; recombinant, obtained in-house; PDB 4XFW is given for docking only
T8 sequence (B5Z8I0 22-247): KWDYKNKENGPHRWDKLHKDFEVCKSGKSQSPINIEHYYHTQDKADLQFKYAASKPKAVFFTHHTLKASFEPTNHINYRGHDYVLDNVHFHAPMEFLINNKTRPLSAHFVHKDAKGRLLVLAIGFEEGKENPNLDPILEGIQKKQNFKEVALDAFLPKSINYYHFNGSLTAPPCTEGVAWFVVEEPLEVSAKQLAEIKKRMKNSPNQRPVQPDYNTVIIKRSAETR

[9] = system: T9, H. pylori ATCC 43504; experiment: microbe, parasite or virus in culture; set-up: species or system Helicobacter pylori ATCC 43504; MIC by broth microdilution, alamarBlue and CFU count; MBC by CFU count; conditions: Helicobacter pylori, ATCC43504
T9 construct: ATCC 43504
Protocol: H. pylori ATCC 43504 was cultured on a Columbia Agar base (Becton Dickinson and Company, Franklin Lakes, NJ, USA) supplemented with 10% horse serum (Merck, St. Louis, MO, USA) and 0.25% yeast extract (Oxoid Ltd., Hampshire, UK), incubated at 37 °C for 72 h in a microaerophilic atmosphere (CampyGen, Thermo Fisher Scientific, Milan, Italy). Colonies were collected and transferred into 10 mL of Brain Heart Infusion broth (BHI, Oxoid Ltd., Hampshire, UK) supplemented with 5% (v/v) of fetal bovine serum (FBS, Merck, Milan, Italy) and incubated overnight at 37 °C, at 125 rpm under microaerophilic conditions. After 18 h of incubation, the broth culture was diluted to obtain a bacterial suspension of 10^6 CFU/mL. MICs were determined by three different assays: the broth micro-dilution method, the alamarBlue assay, and the CFU count. […] This bacterium was selected based on the inhibitory potency evidenced by the two series of azobenzenesulfonamides against the HpCAs.

[10] = target: T10, PsCA3 (Pseudomonas aeruginosa, UniProt Q9HVB9); experiment: stopped-flow CO2 hydration; type: biochemical; conditions: read-out: KI (nM) * / Bacterial Isoforms / Ps CA3
T10 construct: gene PA4676; recombinant, obtained in-house
T10 sequence (Q9HVB9 1-215): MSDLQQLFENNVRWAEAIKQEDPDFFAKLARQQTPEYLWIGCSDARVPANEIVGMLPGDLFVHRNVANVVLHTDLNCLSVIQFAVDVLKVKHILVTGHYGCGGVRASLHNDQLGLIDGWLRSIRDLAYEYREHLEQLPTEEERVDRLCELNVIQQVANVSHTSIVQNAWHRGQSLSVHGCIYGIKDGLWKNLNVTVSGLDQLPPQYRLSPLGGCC

[11] = target: T11, hCA IX (Homo sapiens, UniProt Q16790); experiment: stopped-flow CO2 hydration; type: biochemical; conditions: read-out: KI (nM) * / Human Isoforms / hCA IX
T11 construct: gene CA9
Excerpt: stopped-flow CO2 hydration on hCA IX

[12] = target: T10, PsCA3; experiment: biochemical; conditions: read-out: Bacterial Isoforms / Ps CA3
Protocol: (§1) An Applied Photophysics stopped-flow instrument was used to evaluate the ability of the test compounds to inhibit CA-catalyzed CO2 hydration. […] The CO2 concentrations ranged from 1.7 to 17 mM for the determination of the kinetic parameters and inhibition constants. Enzyme concentrations spanned from 5 to 12 nM. Stock solutions of the inhibitor (0.1 mM) were prepared in distilled–deionized water, and dilutions up to 0.01 nM were prepared with the assay buffer. Inhibitor and enzyme solutions were preincubated for 15 min at r.t. for the formation of the E–I complex. The inhibition constants were obtained by non-linear least-squares methods using PRISM 3 and the Cheng–Prusoff equation and represent the mean from at least three different determinations. Apart from human CAs I and II purchased from Merck, all the bacterial CAs were recombinant and obtained in-house. Compounds 4a–j and 5a–j were tested on a large panel of human and bacterial isoenzymes belonging to different CA families, evaluating their inhibitory activity through the CO2 hydration activity assay by means of the stopped-flow technique, and the inhibitory constants (KIs) are reported in Table 1 and Table 2, respectively. In particular, we tested the hypoxic tumor-associated hCAs IX and XII, and bacterial isoforms involved in several infectious diseases, such as those caused by H. pylori (HpαCA and HpβCA), Porphyromonas gingivalis (PgiβCA and PgiγCA), Escherichia coli (EcoβCA), Pseudomonas aeruginosa (PsCA3, belonging to the β-class), Mammaliicoccus (Staphylococcus) sciuri (MscCA, belonging to the β-class), and Streptococcus mutans (SmuCA, belonging to the β-class). The inhibition of human physiologically relevant isoforms I and II was also investigated in order to assess the compounds’ selectivity. Our main aim was to rationalize the structural requirements of sulfonamide-containing compounds useful for targeting HpCAs, in order to gain a larger knowledge for further optimization studies focusing on isoform selectivity. In fact, although the tested human and bacterial isoforms present a low degree of sequence similarity, they catalyze the same reaction and contain the catalytically active zinc ion in the active site. Thus, a comparison of the data obtained from different members of this large superfamily has a high relevance in the field. By observing Table 1 and Table 2, interesting structure–activity relationship (SAR) considerations can be inferred.

[13] = target: T1, hCA I; experiment: biochemical; conditions: read-out: Human Isoforms / hCA I
Protocol: as §1

[14] = target: T11, hCA IX; experiment: biochemical; conditions: read-out: Human Isoforms / hCA IX
Protocol: as §1

[15] = target: T3, hCA XII; experiment: biochemical; conditions: read-out: Human Isoforms / hCA XII
Protocol: as §1

[16] = target: T4, EcoβCA; experiment: biochemical; conditions: read-out: Bacterial Isoforms / Eco βCA
Protocol: as §1

[17] = read-out: KI (nM) * / Bacterial Isoforms / Hp αCA

T4 sequence (P61517 whole entry, canonical isoform): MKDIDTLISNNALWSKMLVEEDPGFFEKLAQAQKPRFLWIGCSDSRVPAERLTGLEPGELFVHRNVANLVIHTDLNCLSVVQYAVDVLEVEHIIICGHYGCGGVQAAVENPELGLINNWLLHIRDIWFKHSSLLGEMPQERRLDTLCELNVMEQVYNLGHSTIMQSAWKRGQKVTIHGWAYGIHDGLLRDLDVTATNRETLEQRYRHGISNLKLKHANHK
T1 sequence (P00915 2-261): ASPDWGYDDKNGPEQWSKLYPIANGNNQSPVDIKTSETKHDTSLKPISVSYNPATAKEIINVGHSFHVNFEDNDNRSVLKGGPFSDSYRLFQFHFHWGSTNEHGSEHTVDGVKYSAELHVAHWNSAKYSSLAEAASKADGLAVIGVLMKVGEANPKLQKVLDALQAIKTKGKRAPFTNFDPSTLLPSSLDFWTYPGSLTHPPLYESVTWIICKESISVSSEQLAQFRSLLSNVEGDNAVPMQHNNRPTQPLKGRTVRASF
T3 sequence (O43570 30-289 limits assumed): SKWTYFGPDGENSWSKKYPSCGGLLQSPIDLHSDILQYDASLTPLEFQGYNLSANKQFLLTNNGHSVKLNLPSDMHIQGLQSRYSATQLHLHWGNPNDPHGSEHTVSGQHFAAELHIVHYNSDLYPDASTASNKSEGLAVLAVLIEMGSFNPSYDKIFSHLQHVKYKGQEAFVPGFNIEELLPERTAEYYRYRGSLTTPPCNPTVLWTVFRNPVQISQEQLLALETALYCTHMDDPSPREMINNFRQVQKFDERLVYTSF

Row | SMILES | Ki [1] [nM] | Ki [2] [nM] | Ki [3] [nM] | Ki [4] [nM] | Ki [5] [nM] | Ki [6] [nM] | Ki [7] [nM] | Ki [8, 17] [nM] | MBC [9] [µg/mL] | MIC [9] [µg/mL] | Ki [10] [nM] | Ki [11] [nM] | Ki ([8]; read-out: KI (nM) / Bacterial Isoforms / Hp αCA) [nM] | pKi [12] | pKi [13] | pKi [14] | pKi [15] | pKi [16]
1 | Cc1cc(O)cc(C)c1/N=N/c1ccc(S(N)(=O)=O)cc1 [4g, (E)-4-((4-hydroxy-2,6-dimethylphenyl)diazenyl)benzenesulfonamide] | 4.9 | 3.7 | 63.9 | 550 | 3670 | 939 | 74.3 | 142 | 32 (≈ 105 µM) | 16 (≈ 52.4 µM) | 879 | 171 | – | – | – | – | – | –
2 | COc1cc(O)ccc1/N=N/c1ccc(S(N)(=O)=O)cc1 [4c, (E)-4-((4-hydroxy-2-methoxyphenyl)diazenyl)benzenesulfonamide] | 84.9 | 5.4 | 34.7 | 96.3 | 3630 | 2000 | 17.1 | 70.9 | 16 (≈ 52.1 µM) | 8 (≈ 26 µM) | 221 | 545 | – | – | – | – | – | –
3 | Cc1cc(/N=N/c2ccc(S(N)(=O)=O)cc2)c(C)cc1O [4f, (E)-4-((4-hydroxy-2,5-dimethylphenyl)diazenyl)benzenesulfonamide] | 5.7 | 1.9 | 56.7 | 867 | 3760 | 472 | 70.6 | 69.4 | 32 (≈ 105 µM) | 32 (≈ 105 µM) | 191 | 97.1 | – | – | – | – | – | –
4 | Cc1cc(O)ccc1/N=N/c1ccc(S(N)(=O)=O)cc1 [4j, (E)-4-((4-hydroxy-2-methylphenyl)diazenyl)benzenesulfonamide] | 5.3 | 4.7 | 84.1 | 3040 | 5780 | 914 | 138 | 72.2 | 32 (≈ 110 µM) | 16 (≈ 54.9 µM) | 1840 | 213 | – | – | – | – | – | –
5 | Cc1cc(/N=N/c2ccc(S(N)(=O)=O)cc2)ccc1O [4i, (E)-4-((4-hydroxy-3-methylphenyl)diazenyl)benzenesulfonamide] | 4.4 | 3.4 | 7.5 | 2110 | 2070 | 6330 | 119 | 140 | 64 (≈ 220 µM) | 32 (≈ 110 µM) | 114 | 181 | – | – | – | – | – | –
6 | Cc1ccc(O)c(/N=N/c2ccc(S(N)(=O)=O)cc2)c1 [4h, (E)-4-((2-hydroxy-5-methylphenyl)diazenyl)benzenesulfonamide] | 68.4 | 6.6 | 9.6 | 360 | 3850 | 772 | 127 | 130 | 64 (≈ 220 µM) | 32 (≈ 110 µM) | 980 | 184 | – | – | – | – | – | –
7 | CC1(C)S[C@@H]2[C@H](NC(=O)[C@H](N)c3ccc(O)cc3)C(=O)N2[C@H]1C(=O)O [Amoxicillin] | – | – | – | – | – | – | – | – | 0.064 (≈ 0.175 µM) | 0.064 (≈ 0.175 µM) | – | – | – | – | – | – | – | –
8 | COc1cc(/N=N/c2ccc(S(N)(=O)=O)cc2)ccc1O [4b, (E)-4-((4-hydroxy-3-methoxyphenyl)diazenyl)benzenesulfonamide] | 34.8 | 3.3 | 21.8 | 95.8 | 1920 | 837 | 49.7 | 120 | 32 (≈ 104 µM) | 32 (≈ 104 µM) | 702 | 831 | – | – | – | – | – | –
9 | CS(=O)(=O)Nc1ccc(N=Nc2ccccc2)cc1 [5i] | – | – | – | – | – | – | – | – | 32 (≈ 116 µM) | 16 (≈ 58.1 µM) | – | – | 89.8 | 5.03 | 5.22 | 6.22 | 5.65 | 5.16
10 | NS(=O)(=O)c1ccc(/N=N/c2ccc(O)c(C(F)(F)F)c2)cc1 [4d, (E)-4-((4-hydroxy-3-(trifluoromethyl)phenyl)diazenyl)benzenesulfonamide] | 20.1 | 4.8 | 40.2 | 738 | 3170 | 94.7 | 19.4 | 39 | 128 (≈ 371 µM) | 64 (≈ 185 µM) | 222 | 182 | – | – | – | – | – | –
11 | NS(=O)(=O)c1ccc(/N=N/c2ccc(O)cc2C(F)(F)F)cc1 [4e, (E)-4-((4-hydroxy-2-(trifluoromethyl)phenyl)diazenyl)benzenesulfonamide] | 5.4 | 4.2 | 54.1 | 95.3 | 899 | 347 | 68.8 | 89.2 | 16 (≈ 46.3 µM) | 8 (≈ 23.2 µM) | 495 | 191 | – | – | – | – | – | –
